According to patent US20220040129A1, “TREATMENT OF HYPERAMMONEMIA IN PATIENTS WITH RENAL INSUFFICIENCY” (RECORDATI S.p.A., priority 2019, published 2022):
Like-named read-outs stand apart in the source and are kept apart here.

What was measured:
[1] = tested on: plasma NH3; assay: Retrospective review of PA, MMA, IVA decompensation episodes: plasma NH3 and clinical findings; assay type: in vivo, human
Description: […] […] Plasma ammonia (NH3) levels were measured up to a maximum of 15 days from the start of treatment. […] Concomitant standard of care therapies included carnitine, arginine, hydroxocobalamin, biotin, thiamine, riboflavin and glucose.

[2] = tested on: plasma NH3; assay: Rate of reduction of plasma NH3 over 36 hours, population with baseline NH3 over 100/150 micromol/L; assay type: in vivo, human
Excerpt: (§1) The two populations analyzed included: 1) Population with baseline plasma NH3 levels over 100 micromol/L in non-neonate or 150 micromol/L in neonate; 2) Propensity Matching Score (PMS) Population. […] These rates of decrease were confirmed to be statistically significant.

[3] = tested on: plasma NH3; assay: Plasma NH3 reduction in Propensity Matching Score (PMS) Population; assay type: in vivo, human
Description: as §1, with “Episodes treated with extracorporeal detoxification (HD, HF, PD) during the timeframe of the analysis were excluded. There were 12 patients in each group, and NH3 levels were measured in 12- and 24-hour periods over 120 hours. […] The two” for “The two”

[4] = Pharmacokinetics in healthy subjects after oral administration (radiolabeled and non-radiolabeled); assay type: in vivo, human; conditions: for half-life / CL renal: in vivo; for half-life / CL renal / Tmax: po
[5] = target: T1, CYP1A2 (Homo sapiens, UniProt P05177); assay type: in vitro ADME
T1 sequence (P05177 1-516): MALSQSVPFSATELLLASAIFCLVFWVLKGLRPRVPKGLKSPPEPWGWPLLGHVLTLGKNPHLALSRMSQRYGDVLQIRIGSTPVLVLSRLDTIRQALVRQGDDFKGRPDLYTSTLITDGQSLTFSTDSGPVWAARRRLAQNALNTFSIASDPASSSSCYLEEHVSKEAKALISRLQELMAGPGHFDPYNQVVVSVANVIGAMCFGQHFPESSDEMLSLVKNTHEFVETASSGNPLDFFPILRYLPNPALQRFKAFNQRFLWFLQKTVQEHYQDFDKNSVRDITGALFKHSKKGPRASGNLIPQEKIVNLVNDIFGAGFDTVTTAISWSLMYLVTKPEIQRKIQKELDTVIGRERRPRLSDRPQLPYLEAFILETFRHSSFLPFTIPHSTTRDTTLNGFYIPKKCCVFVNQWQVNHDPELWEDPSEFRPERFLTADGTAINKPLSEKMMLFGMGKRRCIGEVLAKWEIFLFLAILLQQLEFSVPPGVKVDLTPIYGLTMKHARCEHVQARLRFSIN

[6] = target: T2, human BCRP (Homo sapiens, UniProt Q9UNQ0); assay: In vitro transporter inhibition; assay type: in vitro ADME
T2 sequence (Q9UNQ0 1-655): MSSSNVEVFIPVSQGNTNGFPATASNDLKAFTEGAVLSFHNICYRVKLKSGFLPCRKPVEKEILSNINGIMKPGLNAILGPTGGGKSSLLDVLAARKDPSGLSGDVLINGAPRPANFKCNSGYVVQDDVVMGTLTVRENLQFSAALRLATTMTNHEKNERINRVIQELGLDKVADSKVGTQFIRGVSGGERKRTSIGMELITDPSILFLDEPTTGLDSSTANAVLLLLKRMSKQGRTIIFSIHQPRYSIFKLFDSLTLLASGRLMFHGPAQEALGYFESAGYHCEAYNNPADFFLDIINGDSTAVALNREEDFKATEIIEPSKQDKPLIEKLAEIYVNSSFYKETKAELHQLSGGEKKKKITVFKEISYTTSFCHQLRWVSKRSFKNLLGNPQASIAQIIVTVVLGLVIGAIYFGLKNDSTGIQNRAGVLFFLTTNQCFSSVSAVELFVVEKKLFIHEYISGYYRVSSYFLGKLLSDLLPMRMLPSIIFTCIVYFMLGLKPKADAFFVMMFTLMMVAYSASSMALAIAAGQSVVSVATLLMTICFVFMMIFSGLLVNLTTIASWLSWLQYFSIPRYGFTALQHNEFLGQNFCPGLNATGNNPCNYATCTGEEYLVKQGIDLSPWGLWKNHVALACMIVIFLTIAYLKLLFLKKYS
Description: (§2) In vitro drug interaction studies were performed with human transporters. […] Potential interactions with inhibitors of the OAT1 transporter were considered clinically irrelevant.

[7] = target: human MDR1 (Homo sapiens, UniProt P08183); assay: In vitro transporter inhibition; assay type: in vitro ADME
Chain of human MDR1 (P08183 whole entry): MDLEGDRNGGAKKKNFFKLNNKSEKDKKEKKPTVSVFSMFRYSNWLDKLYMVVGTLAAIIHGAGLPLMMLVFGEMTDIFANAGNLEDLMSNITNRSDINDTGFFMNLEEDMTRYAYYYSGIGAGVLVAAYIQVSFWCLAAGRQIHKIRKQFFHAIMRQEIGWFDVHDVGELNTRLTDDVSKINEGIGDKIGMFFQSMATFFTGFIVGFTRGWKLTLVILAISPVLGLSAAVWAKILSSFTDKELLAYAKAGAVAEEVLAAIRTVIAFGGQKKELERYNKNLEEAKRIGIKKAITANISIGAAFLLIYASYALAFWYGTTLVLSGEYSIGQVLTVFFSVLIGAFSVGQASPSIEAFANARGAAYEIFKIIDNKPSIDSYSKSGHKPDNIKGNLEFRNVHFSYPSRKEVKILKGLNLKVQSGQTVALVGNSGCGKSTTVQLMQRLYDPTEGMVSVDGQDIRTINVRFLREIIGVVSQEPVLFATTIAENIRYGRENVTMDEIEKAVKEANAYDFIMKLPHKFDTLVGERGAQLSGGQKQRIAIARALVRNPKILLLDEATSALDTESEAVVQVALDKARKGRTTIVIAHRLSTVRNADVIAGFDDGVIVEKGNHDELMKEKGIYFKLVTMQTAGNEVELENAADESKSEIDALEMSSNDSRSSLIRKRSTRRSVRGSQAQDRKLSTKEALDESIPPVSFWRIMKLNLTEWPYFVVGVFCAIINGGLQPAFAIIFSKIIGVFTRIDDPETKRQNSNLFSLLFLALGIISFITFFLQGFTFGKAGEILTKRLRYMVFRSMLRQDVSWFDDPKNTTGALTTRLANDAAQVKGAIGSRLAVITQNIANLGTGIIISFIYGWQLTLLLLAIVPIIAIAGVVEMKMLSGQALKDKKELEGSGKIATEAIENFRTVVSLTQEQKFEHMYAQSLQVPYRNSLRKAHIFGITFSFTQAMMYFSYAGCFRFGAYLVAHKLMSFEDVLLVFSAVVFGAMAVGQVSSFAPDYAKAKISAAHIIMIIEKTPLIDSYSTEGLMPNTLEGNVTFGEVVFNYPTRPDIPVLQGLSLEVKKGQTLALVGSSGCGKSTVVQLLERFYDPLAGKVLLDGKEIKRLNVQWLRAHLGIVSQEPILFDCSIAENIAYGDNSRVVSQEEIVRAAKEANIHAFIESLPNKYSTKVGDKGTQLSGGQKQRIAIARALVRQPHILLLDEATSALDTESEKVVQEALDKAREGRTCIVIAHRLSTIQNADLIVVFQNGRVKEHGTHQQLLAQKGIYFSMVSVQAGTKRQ
Description: as §2

[8] = target: T3, human OAT3 (Homo sapiens, UniProt Q8TCC7); assay: In vitro transporter inhibition; assay type: in vitro ADME
T3 sequence (Q8TCC7 1-542): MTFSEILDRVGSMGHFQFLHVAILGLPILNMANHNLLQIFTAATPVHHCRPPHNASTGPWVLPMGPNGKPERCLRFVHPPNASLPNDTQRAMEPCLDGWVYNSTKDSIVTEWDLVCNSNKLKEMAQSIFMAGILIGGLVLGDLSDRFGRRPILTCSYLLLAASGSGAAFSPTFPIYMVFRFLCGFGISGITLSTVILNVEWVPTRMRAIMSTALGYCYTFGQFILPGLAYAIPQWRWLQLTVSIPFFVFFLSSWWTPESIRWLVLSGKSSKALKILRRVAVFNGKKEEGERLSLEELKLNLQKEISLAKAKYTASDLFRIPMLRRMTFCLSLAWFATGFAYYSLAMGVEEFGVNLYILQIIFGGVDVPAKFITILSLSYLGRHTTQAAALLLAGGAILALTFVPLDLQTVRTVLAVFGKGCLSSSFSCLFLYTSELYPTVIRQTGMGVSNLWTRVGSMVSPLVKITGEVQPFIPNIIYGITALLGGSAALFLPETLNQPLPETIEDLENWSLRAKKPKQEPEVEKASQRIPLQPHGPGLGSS
Description: as §2

[9] = Nonclinical safety study in rats: exposure; conditions: rat, in vivo
[10] = single radiolabeled oral dose of 100 mg/kg

## NC(=O)N[C@@H](CCC(=O)O)C(=O)O [carglumic acid, N-carbamoyl-L-glutamic acid]
[1]; 36-48 hours from treatment initiation
  Mean reduction in plasma NH3 levels from baseline: −63%
[1]; 51 patients (27 PA, 24 MMA)
  Differences in plasma ammonia level reduction between pediatric and adult patients with PA or MMA: no apparent differences
[1]; clinical, laboratory, neurological, psychiatric, respiratory findings and feeding difficulties
  Median change in the number of clinical findings from baseline to endpoint: −4.0
[1]; human, in vivo
  Normalization of the neurological findings: 50 % of episodes
[2]; baseline plasma NH3 over 100 micromol/L in non-neonate or 150 micromol/L in neonate
  Median time to achieve 50% reduction of plasma NH3: 18 hours post dose
[2]; first 36 hours after treatment initiation, the two populations analyzed
  Speed of plasma NH3 reduction versus NH3 Scav alone group: statistically significantly faster
[3]; 12 patients per group, over 120 hours
  Reduction of mean plasma NH3 levels from baseline compared with NH3 Scav alone: consistent and meaningful reduction
[3]; 24 hours post dose
  Median reduction of plasma NH3: 61%
[4]; after oral administration
  24-hour urinary excretion: 4.5 % of the dose
  Apparent total clearance, median: 5.7 L/min
  Apparent volume of distribution, median: 2657 L
  Apparent volume of distribution, median per kg: 35.9 L/kg
  Apparent volume of distribution, range: 1616 to 5797 L
[4]; human, after oral administration, read-out: Initial half-life (converted)
  half-life: ~5.6 h
[4]; human, after oral administration, read-out: Renal clearance, median
  CL renal: 290 mL/min
[4]; human, after oral administration, read-out: Renal clearance, range
  CL renal: 204 to 445 mL/min
[4]; human, after oral administration, read-out: Terminal half-life (converted)
  half-life: ~22 h
[4]; human, plasma, 100 mg/kg, oral, read-out: Absolute bioavailability
  bioavailability: 9.9%
[4]; human, plasma, read-out: Tmax, median
  Tmax: 3 h
[4]; human, plasma, read-out: Tmax, range
  Tmax: 2 to 4 h
[4]; [10]
  Dose excreted unchanged in the urine: 9 % of the dose
  Dose recovered unchanged in the feces: up to 60 % of the dose
[5]
  Inhibition of CYP1A2: not an inhibitor
[6]
  Inhibition of human BCRP efflux transporter: not an inhibitor
[7]
  Inhibition of human MDR1 efflux transporter: not an inhibitor
[8]
  Inhibition of human OAT3 uptake transporter: not an inhibitor
[9]; read-out: AUC, exposure previously observed
  AUC: 258 µg·h/mL
[9]; read-out: Cmax, exposure previously observed
  Cmax: 52 µg/mL
